This note sets out measurements from patent publication US4452851A, “Cephem compounds” (Fujisawa Pharmaceutical Co., Ltd., priority 1981, dated 1984).

One data set deals with Escherichia coli 31. The data set is described as follows: Minimal inhibitory concentration, two-fold agar-plate dilution method. The data set is classed as cell-based. The settings on record: HI-agar, 37° C., 20 hours. The method, then: (§1) In vitro antibacterial activity was determined by the two-fold agar-plate dilution method as described below. One loopful of an overnight culture of each test strain in Trypticase-soy broth (10^8 viable cells per ml) was streaked on heart infusion agar (HI-agar) containing graded concentrations of representative test compound, and the minimal inhibitory concentration (MIC) was expressed in terms of μg/ml after incubation at 37° C. for 20 hours.

For data set [1], the system named is Escherichia coli NIHJ JC-2. Described as above. The data set is classed as cell-based. As to conditions: NIHJJC2, HI-agar, 37° C., 20 hours. The method, then:
as §1

A further data set has as its system Klebsiella pneumoniae 20. The description is as above. The data set is classed as cell-based. The settings on record: HI-agar, 37° C., 20 hours. The method, then: as §1
The next data set has as its system Proteus mirabilis 18. Described as above. The class given is cell-based. The settings on record: HI-agar, 37° C., 20 hours. The method, then:
as §1

Data set [2] deals with Proteus vulgaris IAM-1025. The description is as above. The data set is classed as cell-based. The settings on record: IAM1025, HI-agar, 37° C., 20 hours. The method, then:
as §1

The nature of data set [3]: Urinary excretion in rats after oral administration. The class given is in vivo. The settings on record: rat, 100 mg/kg, 100 mg per Kg, urine 0 to 24 hours, bioassay. The method, then:
The concentration of antibiotic in urine samples were bioassayed with the standard buffer at pH 7.0, and the urinary excretion in 24 hours were calculated.

Another data set is described as follows: in vivo. As to conditions: rat, po, 100 mg/kg.

In brackets after ≈: the same amount, converted by molar mass.

Protocol for in vivo: Rats anesthetized with pentobarbital were fixed in supine position, and a polyethylene cannula was inserted into the bile duct. Bile samples were collected at 0 to 3, 3 to 6, and 6 to 24 hours after oral administration of 100 mg of the test drugs per kg. The antibiotic levels in the bile samples were assyed with the standard solutions prepared with M/15 phosphate buffer (pH 7.0) and the biliary excretion in 24 hours were calculated.

For orientation: MIC means the lowest concentration found to suppress growth. Lower therefore signals inhibition by little substance. For the molecule `CCSC1=C(C(=O)O)N2C(=O)C(NC(=O)/C(=N\OCC(=O)O)c3nsc(N)n3)C2SC1` (stereo not drawn) [(4), 7-[2-(5-amino-1,2,4-thiadiazol-3-yl)-2-carboxymethoxyiminoacetamido]-3-ethylthio-3-cephem-4-carboxylic acid (syn isomer)], the minimum inhibitory concentration (MIC) with Escherichia coli 31 is 0.2 µg/mL (≈ 0.409 µM); in data set [1] it was 1.56 µg/mL (≈ 3.19 µM); against Klebsiella pneumoniae 20, 0.39 µg/mL (≈ 0.798 µM); in the data set with Proteus mirabilis 18, 0.2 µg/mL (≈ 0.409 µM); in data set [2], 0.78 µg/mL (≈ 1.6 µM).

With `CSC1=C(C(=O)O)N2C(=O)C(NC(=O)/C(=N\OCC(=O)O)c3csc(N)n3)C2SC1` (stereo not drawn) [Compound (1), 7-[2-(2-aminothiazol-4-yl)-2-carboxymethoxyiminoacetamido]-3-methylthio-3-cephem-4-carboxylic acid (syn isomer)], the MIC in the data set on Escherichia coli 31 stood at 0.2 µg/mL (≈ 0.422 µM); in data set [1], 1.56 µg/mL (≈ 3.29 µM); in the data set on Klebsiella pneumoniae 20, 0.1 µg/mL (≈ 0.211 µM); in the data set on Proteus mirabilis 18 it was 0.05 µg/mL (≈ 0.106 µM); in data set [2] it was 0.39 µg/mL (≈ 0.824 µM). The values for the dose excreted at 24 h (in data set [3]; in “in vivo”) were 51.6% and 41.1%, respectively.

Regarding `CCSC1=C(C(=O)O)N2C(=O)C(NC(=O)/C(=N\OCC(=O)O)c3csc(N)n3)C2SC1` (stereo not drawn) [Compound (2), 7-[2-(2-aminothiazol-4-yl)-2-carboxymethoxyiminoacetamido]-3-ethylthio-3-cephem-4-carboxylic acid (syn isomer)], the MIC was 0.2 µg/mL (≈ 0.41 µM) with Escherichia coli 31; 3.13 µg/mL (≈ 6.42 µM) in data set [1]; 0.1 µg/mL (≈ 0.205 µM) with Klebsiella pneumoniae 20; 0.025 µg/mL (≈ 0.0513 µM) in the data set on Proteus mirabilis 18; 0.78 µg/mL (≈ 1.6 µM) in data set [2]. Also, the dose excreted at 24 h in data set [3] worked out at 19.4%; in “in vivo” it was 32.2%.

For `CCSC1=C(C(=O)O)N2C(=O)C(NC(=O)/C(=N\OCC(=O)O)c3nc(N)sc3Cl)C2SC1` (stereo not drawn) [Compound (3), 7-[2-(2-amino-5-chlorothiazol-4-yl)-2-carboxymethoxyiminoacetamido]-3-ethylthio-3-cephem-4-carboxylic acid (syn isomer)], the minimal inhibitory concentration (MIC) in the data set on Escherichia coli 31 worked out at 0.2 µg/mL (≈ 0.383 µM); in data set [1], 1.56 µg/mL (≈ 2.99 µM); against Klebsiella pneumoniae 20 it was 0.2 µg/mL (≈ 0.383 µM); with Proteus mirabilis 18 it was 0.05 µg/mL (≈ 0.0958 µM); in data set [2], 0.1 µg/mL (≈ 0.192 µM).

As to `CSC1=C(C(=O)O)N2C(=O)C(NC(=O)/C(=N\OCC(=O)O)c3cscn3)C2SC1` (stereo not drawn) [Test Compound (3), 7-[2-(4-thiazolyl)-2-carboxymethoxyiminoacetamido]-3-methylthio-3-cephem-4-carboxylic acid (syn isomer)], the dose excreted at 24 h in data set [3] was 48.6%; in the data set “in vivo”, 25.5%.
